One may read the IC50 as the midpoint of a concentration-inhibition curve.

The assay has as its target 5HT3a receptor expressed in HEK-293T cells (Homo sapiens (Human), UniProt P46098). Kind of assay: Inhibition of Ca flux activity of 5HT3 in vitro assay. Type of assay: cell-based. Particulars: calcium flux, 5HT 216 nM, approximate values. As for the experimental part: Inhibition of Ca Flux Activity of 5HT3 In Vitro Assay
The 5HT3 antagonist activity of the compounds of the invention was determined by measuring the ability of the compounds to inhibit the calcium flux activity of […] receptor expressed in HEK-293T cells. HEK-293T cells were transfected with the 5HT3a expression construct using Xtreme Gene 9 (Roche) in 150 mm tissue culture treated plates and incubated for 24 hours at 37° C. Cells were then split and plated at a density of 60K cells/well in poly-lysine coated, black 96-well plates with clear bottoms (BD BioSciences) and incubated overnight at 37° C. Growth media was removed and cells loaded with 200 uL calcium indicator dye in HBSS containing 20 mM HEPES (Calcium 5 Assay kit, Molecular Devices) and incubated at 37° C. for 1 hour. While cells were incubating, the 10× antagonist and agonist/antagonist addition plates were made. For 10× antagonist plate: half log serial dilutions (final concentrations range from 10^−7 through 10^−10 with the bottom well a negative, no ligand control) were made from test compounds in DMSO at a 1000× concentration and then diluted to 10× in HBSS/20 mM HEPES. For addition plate: 5HT was diluted to 100× in HBSS/20 mM HEPES (final concentration in the assay—216 nM) and 15 uL was added to each well of the addition plate, 15 uL of 10× compound was also added to the addition plate, and finally 120 uL of HBSS/20 mM HEPES (for a total of 150 uL). Cells were then removed from the incubator and equilibrated to room temperature for 10 minutes, then 22.5 uL of 10× test compounds were added in triplicate to the plates and incubated at room temperature for 10 minutes (Tropisetron was used as a positive control in every assay). Test plate and addition plate were loaded into the FlexStation III (Molecular Devices), and using the fluidics, 22.5 uL compound additions were made (at t=˜17 seconds), and fluorescence was measured for 90 seconds, reading every 2.2 seconds. Data sets were analyzed as max minus min using Software Max Pro (Molecular Devices). IC50 curves were generated using non-linear regression in GraphPad Prism.
(Calcium assays in cells follow changes in intracellular calcium, usually with a dye or a luminescent sensor.)

Sequence of 5HT3a receptor expressed in HEK-293T cells (P46098 24-478): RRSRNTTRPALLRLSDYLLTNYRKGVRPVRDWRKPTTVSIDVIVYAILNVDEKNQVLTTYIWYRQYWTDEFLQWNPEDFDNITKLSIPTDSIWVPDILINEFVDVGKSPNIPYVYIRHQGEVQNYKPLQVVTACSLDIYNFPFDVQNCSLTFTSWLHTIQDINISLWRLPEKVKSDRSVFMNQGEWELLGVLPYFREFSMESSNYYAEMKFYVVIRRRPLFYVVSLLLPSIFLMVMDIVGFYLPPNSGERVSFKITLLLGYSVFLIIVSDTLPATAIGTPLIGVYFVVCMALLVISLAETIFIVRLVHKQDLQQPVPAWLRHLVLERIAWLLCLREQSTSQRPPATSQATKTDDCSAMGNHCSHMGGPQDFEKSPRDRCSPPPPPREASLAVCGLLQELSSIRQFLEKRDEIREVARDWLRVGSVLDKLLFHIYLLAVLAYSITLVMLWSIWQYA

Regarding `O=C(O[C@H]1CC[N@@]2CCO[C@@H]1C2)c1cn(CC(F)F)c2ccc(F)cc12` [Example 91, (1S,5R,6S)-4-oxa-1-azabicyclo[3.3.1]nonan-6-yl 1-(2,2-difluoroethyl)-5-fluoro-1H-indole-3-carboxylate, 2,2,2-trifluoroacetate], the IC50 is greater than 1000 nM. The same measure for `CC(C)S(=O)(=O)n1cc(C(=O)NC2CC3COCC(C2)N3C)c2cc(F)ccc21` [Example 93, 5-fluoro-1-(isopropylsulfonyl)-N-((1R,5S,7S)-9-methyl-3-oxa-9-azabicyclo[3.3.1]nonan-7-yl)-1H-indole-3-carboxamide, 2,2,2-trifluoroacetate]: 1.39 nM.

On to `CN1[C@@H]2CC[C@H]1CC(OC(=O)c1cn(CC(F)(F)F)c3ccccc13)C2` (stereo partly drawn) [Example 95, (1R,3R,5S)-8-methyl-8-azabicyclo[3.2.1]octan-3-yl 1-(2,2,2-trifluoroethyl)-1H-indole-3-carboxylate, 2,2,2-trifluoroacetate], for which the concentration for half-maximal inhibition (IC50) was found to be 0.89 nM. As for `CN1C2CCC1CC(OC(=O)c1cn([C@H]3CCOC3)c3ccccc13)C2` (stereo partly drawn) [Example 96, (1R,3R,5S)-8-methyl-8-azabicyclo[3.2.1]octan-3-yl 1-((S)-tetrahydrofuran-3-yl)-1H-indole-3-carboxylate, 2,2,2-trifluoroacetate], the figure is 0.83 nM; as for `CN1[C@@H]2CCC[C@H]1CC(NC(=O)c1cn(CC(F)F)c3ccc(F)cc13)C2` (stereo partly drawn) [Example 98, 1-(2,2-difluoroethyl)-5-fluoro-N-((1R,3R,5S)-9-methyl-9-azabicyclo[3.3.1]nonan-3-yl)-1H-indole-3-carboxamide, 2,2,2-trifluoroacetate], 5.45 nM.

For the compound `CN1[C@@H]2COC[C@H]1CC(OC(=O)c1cn(S(C)(=O)=O)c3ccc(F)cc13)C2` (stereo partly drawn) [Example 99, (1R,5S,7S)-9-methyl-3-oxa-9-azabicyclo[3.3.1]nonan-7-yl 5-fluoro-1-(methylsulfonyl)-1H-indole-3-carboxylate, 2,2,2-trifluoroacetate], the IC50 turned out to be 0.29 nM.

As for `CN1[C@@H]2CCC[C@H]1CC(NC(=O)c1cn(S(C)(=O)=O)c3ccc(F)cc13)C2` (stereo partly drawn) [Example 100, 5-fluoro-N-((1R,3R,5S)-9-methyl-9-azabicyclo[3.3.1]nonan-3-yl)-1-(methylsulfonyl)-1H-indole-3-carboxamide, 2,2,2-trifluoroacetate], the IC50 was found to be 12.8 nM. The same measure for `O=C(OC1CC2COCC(C1)N2)c1cn(CC(F)F)c2ncccc12` [Example 101, (1R,5S,7S)-3-oxa-9-azabicyclo[3.3.1]nonan-7-yl 1-(2,2-difluoroethyl)-1H-pyrrolo[2,3-b]pyridine-3-carboxylate, 2,2,2-trifluoroacetate]: greater than 1000 nM.

For `CN1C2CCC1CC(NC(=O)c1cn(CC(F)(F)F)c3ncccc13)C2` [Example 102, N-((1R,3R,5S)-8-methyl-8-azabicyclo[3.2.1]octan-3-yl)-1-(2,2,2-trifluoroethyl)-1H-pyrrolo[2,3-b]pyridine-3-carboxamide, 2,2,2-trifluoroacetate], the IC50 was greater than 1000 nM. The same measure for `CN1[C@@H]2CCC[C@H]1CC(OC(=O)c1cn(CC(F)(F)F)c3ncccc13)C2` (stereo partly drawn) [Example 103, (1R,3R,5S)-9-methyl-9-azabicyclo[3.3.1]nonan-3-yl 1-(2,2,2-trifluoroethyl)-1H-pyrrolo[2,3-b]pyridine-3-carboxylate, 2,2,2-trifluoroacetate]: 8.2 nM; for `O=C(NC1CC2COCC(C1)N2C(F)(F)F)c1cn(CC(F)F)c2ncccc12` [Example 104, 1-(2,2-difluoroethyl)-N-((1R,5S,7S)-9-(trifluoromethyl)-3-oxa-9-azabicyclo[3.3.1]nonan-7-yl)-1H-pyrrolo[2,3-b]pyridine-3-carboxamide, 2,2,2-trifluoroacetate]: greater than 1000 nM; for `O=C(NC1C[C@H]2COC[C@@H](C1)N2)c1cn(CC(F)(F)F)c2ncc(F)cc12` (stereo partly drawn) [Example 105, N-((1R,5S,7S)-3-oxa-9-azabicyclo[3.3.1]nonan-7-yl)-5-fluoro-1-(2,2,2-trifluoroethyl)-1H-pyrrolo[2,3-b]pyridine-3-carboxamide, 2,2,2-trifluoroacetate]: 34.1 nM. As for `CN1[C@@H]2COC[C@H]1CC(NC(=O)c1cn(-c3ncccn3)c3ccccc13)C2` (stereo partly drawn) [Example 107, N-((1R,5S,7S)-9-methyl-3-oxa-9-azabicyclo[3.3.1]nonan-7-yl)-1-(pyrimidin-2-yl)-1H-indole-3-carboxamide, 2,2,2-trifluoroacetate], the half-maximal inhibitory concentration (IC50) amounted to 1.1 nM.

For the compound `CN1[C@@H]2COC[C@H]1CC(NC(=O)c1cn(CC(C)(F)F)c3ncccc13)C2` (stereo partly drawn) [Example 108, 1-(2,2-difluoropropyl)-N-((1R,5S,7S)-9-methyl-3-oxa-9-azabicyclo[3.3.1]nonan-7-yl)-1H-pyrrolo[2,3-b]pyridine-3-carboxamide, 2,2,2-trifluoroacetate], the IC50 turned out to be 1.05 nM.

`CN1[C@@H]2COC[C@H]1CC(NC(=O)c1cn(CC(F)F)c3ncc(F)cc13)C2` (stereo partly drawn) [Example 109, 1(2,2-difluoroethyl)-5-fluoro-N-((1R,5S,7S)-9-methyl-d3-3-oxa-9-azabicyclo[3.3.1]nonan-7-yl)-1H-pyrrolo[2,3-b]pyridine-3-carboxamide]: the half-inhibitory concentration (IC50) was found to be 1.11 nM.

Turning to `CC(C)S(=O)(=O)n1cc(C(=O)NC2C[C@H]3COC[C@@H](C2)N3C)c2ccccc21` (stereo partly drawn) [Example 111, N-((1R,5S,7S)-9-methyl-d3-3-oxa-9-azabicyclo[3.3.1]nonan-7-yl)-1-(isopropylsulfonyl)-1H-indole-3-carboxamide, 2,2,2-trifluoroacetate], the concentration for half-maximal inhibition (IC50) came out at 0.77 nM. In the case of `CN1[C@@H]2COC[C@H]1CC(NC(=O)c1cn(CC(F)(F)F)c3ccc(F)cc13)C2` (stereo partly drawn) [Example 112, 1-(2,2,2-trifluoroethyl)-5-fluoro-N-((1R,5S,7S)-9-methyl-d3-3-oxa-9-azabicyclo[3.3.1]nonan-7-yl)-1H-indole-3-carboxamide, 2,2,2-trifluoroacetate], the IC50 stood at 0.53 nM.

Take `CN1[C@@H]2COC[C@H]1CC(NC(=O)c1cn(CC(F)F)c3ccc(F)cc13)C2` (stereo partly drawn) [Example 113, 1-(2,2-difluoroethyl)-5-fluoro-N-((1R,5S,7S)-9-methyl-d3-3-oxa-9-azabicyclo[3.3.1]nonan-7-yl)-1H-indole-3-carboxamide, 2,2,2-trifluoroacetate]: the IC50 is 0.23 nM. The same measure for `O=C(N[C@@H]1CN2CCC1CC2)c1cn(CC(F)F)c2ncccc12` [Example 116, (S)-1-(2,2-difluoroethyl)-N-(quinuclidin-3-yl)-1H-pyrrolo[2,3-b]pyridine-3-carboxamide, 2,2,2-trifluoroacetate]: greater than 1000 nM; for `CN1[C@@H]2COC[C@H]1CC(NC(=O)c1cn(-c3cccnn3)c3ccccc13)C2` (stereo partly drawn) [Example 117, N-((1R,5S,7S)-9-methyl-3-oxa-9-azabicyclo[3.3.1]nonan-7-yl)-1-(pyridazin-3-yl)-1H-indole-3-carboxamide, 2,2,2-trifluoroacetate]: 0.39 nM.

As for `CN1C2COCC1CC(NC(=O)c1cn(-c3nccs3)c3ccccc13)C2` [Example 118, N-((1R,5S,7S)-9-methyl-3-oxa-9-azabicyclo[3.3.1]nonan-7-yl)-1-(thiazol-2-yl)-1H-indole-3-carboxamide, 2,2,2-trifluoroacetate], the IC50 amounted to 0.86 nM. `CN1C2COCC1CC(NC(=O)c1cn(-c3cncnc3)c3ccccc13)C2` [Example 120, N-((1R,5S,7S)-9-methyl-3-oxa-9-azabicyclo[3.3.1]nonan-7-yl)-1-(pyrimidin-5-yl)-1H-indole-3-carboxamide, 2,2,2-trifluoroacetate]: the IC50 came out at 0.39 nM. As for `CN1[C@@H]2COC[C@H]1CC(NC(=O)c1cn(-c3ncccn3)c3ccccc13)C2` (stereo partly drawn) [Example 122, N-((1R,5S,7S)-9-methyl-d3-3-oxa-9-azabicyclo[3.3.1]nonan-7-yl)-1-(pyrimidin-2-yl)-1H-indole-3-carboxamide, 2,2,2-trifluoroacetate], the figure is 1.01 nM. The same measure for `CN1[C@@H]2COC[C@H]1CC(NC(=O)c1cn(-c3cccnn3)c3ccccc13)C2` (stereo partly drawn) [Example 123, N-((1R,5S,7S)-9-methyl-d3-3-oxa-9-azabicyclo[3.3.1]nonan-7-yl)-1-(pyridazin-3-yl)-1H-indole-3-carboxamide, 2,2,2-trifluoroacetate]: 0.28 nM; for `CN1[C@@H]2COC[C@H]1CC(NC(=O)c1nn(CC(F)(F)F)c3ccccc13)C2` (stereo partly drawn) [Example 126, N-((1R,5S,7S)-9-methyl-d3-3-oxa-9-azabicyclo[3.3.1]nonan-7-yl)-1-(2,2,2-trifluoroethyl)-1H-indazole-3-carboxamide, 2,2,2-trifluoroacetate]: 0.86 nM.

For `CN1[C@@H]2COC[C@H]1CC(NC(=O)c1cn(CCF)c3ccccc13)C2` (stereo partly drawn) [Example 127, 1-(2-fluoroethyl)-N-((1R,5S,7S)-9-methyl-d3-3-oxa-9-azabicyclo[3.3.1]nonan-7-yl)-1H-indole-3-carboxamide, 2,2,2-trifluoroacetate], the IC50 stood at 0.22 nM.

The values are drawn from US9303045B2, “5-HT3 receptor antagonists” (Takeda Pharmaceutical Company Limited, priority 2013, dated 2016).
